These results are taken from patent publication US11679124B2, “Composition for use in the treatment of conditions caused by calcium deficiency” (Epicyt Pharma AB, priority 2018, dated 2023).

Assay type in all cases: cell-based, human
The subject of test [1] is Hsp 90β. Kind of test: Hsp 90β expression in Caco-2 cells, western blot. The following applies: 48 h, GCA 1×10^−4 M, butyrate 5×10^−4 M, vs. vehicle control. The protocol: Caco-2 cells with a passage or about 45 (number of time they have been divided) (Sigma-Aldrich Stockholm Sweden) were cultured in Dulbecco's Modified Eagle's Medium (Life Technologies Invitrogen AB, Lidingo, Sweden), with 10% Foetal Bovine Serum (FBS) (Life Technologies), 1% Non Essential Amino Acid (NEAA) (Life Technologies), 100 IU/mL Penicillin Streptomycin (Pen-Strep) (Life Technologies). The cells were incubated in 37° C. with 5% CO2 and cultured in a cell culture flask (BD Falcon®, VWR Internationals, Stockholm, Sweden) and the medium was changed at Monday, Wednesday and Friday every week. […]
For the protein harvesting, the cells was scraped into lysis buffer in protein kinase blocking solution (1% Triton x-100, EDTA; ethylenediaminetetraacetic acid) containing protein kinase inhibitor buffer (10 mM potassium phosphate buffer pH 6.8, 10 mM 3-[(3-cholamidopropyl) dimethylammonio]-1-propane sulphonate (CHAPS: Boehringer Mannheim, Mannheim, Germany) and protease inhibitor cocktail tablet Complete (Roche Diagnostics AB, Stockholm, Sweden). After shaking several times on ice, the cell debris was removed by centrifugation (10000×g for 10 min at 4° C.) and the supernatant's protein content was analysed using the Bradford method. […]

For test [2], the system named is claudin-2. Kind of test: Claudin-2 protein expression in Caco-2 cells, western blot. The following applies: vitamin D 10 μM or 100 μM, geldanamycin 0.5 μM. The protocol: Caco-2 cells with a passage or about 45 (number of time they have been divided) (Sigma-Aldrich Stockholm Sweden) were cultured in Dulbecco's Modified Eagle's Medium (Life Technologies Invitrogen AB, Lidingo, Sweden), with 10% Foetal Bovine Serum (FBS) (Life Technologies), 1% Non Essential Amino Acid (NEAA) (Life Technologies), 100 IU/mL Penicillin Streptomycin (Pen-Strep) (Life Technologies). The cells were incubated in 37° C. with 5% CO2 and cultured in a cell culture flask (BD Falcon®, VWR Internationals, Stockholm, Sweden) and the medium was changed at Monday, Wednesday and Friday every week.
The cells were cultured for approximately 1 week before they were detached (0.25% trypsin-EDTA, Life Technologies) and seeded in 6 well plates with semipermeable filter inserts (3 μm pore size, BD Biosciences, Le Pont de Claix, France), 200 000 cells/well. At confluence the culture medium was changed to FBS-free in both the upper and lower well compartment and to the lower compartment also a mixture of […] insulin, 0.55 μg/mL transferring and 6.7 ng/mL selenium (ITS, Life Technologies) was added to establish cell polarity and structural differentiation (6-7). The cell monolayers were let to cultivate for 14 days before experiments. […]
On the technique in general: A western blot detects proteins with antibodies after separation by electrophoresis.

The test system of test [3] is Caco-2 cells. Kind of test: Ca2+ transport across Caco-2 monolayer without calcium gradient. The following applies: 10 nM 1.25(OH)2-vitamin D3, last 48 hours; no Ca2+ gradient, 1.8 mM on each side. The protocol: The Caco-2 cells were cultivated in on permeable support for 11-14 days, slightly modified according to Giuliano A. R., & Wood R. J. On the day of the experiments the trans-epithelial electrical resistance was measured and only preparations with values between 400 and 900 Ohms×cm^2 were counted. Tested substances were given in the top compartment and effect as read after 24 to 48 h. Ca^2+ flux was measured using liquid scintillation comparing the lower compartment with the upper.
In the present experiment the Caco-2 cells were cultured and grown to epithelium-shaped confluence over 14 days. The following experiments were performed according to Giuliano A. R., & Wood R. J. The effect of 10 nM 1.25(OH)2-vitamin D3 on the calcium transport was tested during the last 48 hours. Flux was tested without calcium (Ca^2+) gradient, concentration of calcium was 1.8 mM on each side of the layer of cells.
In the present experiment the Caco-2 cells were cultured and grown to epithelium-shaped confluence over 12 days. The cells were then grown in another 4 days in presence of 0.1 mM GCA, or in presence with 0.5 mM butyrate, or in presence of the GCA and butyrate in combination.
The effect of 10 nM 1.25(OH)2-vitamin D3 on the calcium transport was tested during the last 48 hours. […]
On the technique in general: Caco-2 monolayers are a common model of the intestinal barrier.

Take `C[C@H](CCC(=O)NCC(=O)O)[C@H]1CC[C@H]2[C@@H]3[C@H](O)C[C@@H]4C[C@H](O)CC[C@]4(C)[C@H]3C[C@H](O)[C@]12C` [GCA, glycocholic acid]: in test [1], the “Hsp 90β protein expression normalized to GAPDH” value is reported as “no effect by itself”. Take vitamin-D: the claudin-2 protein expression entry in test [2] was “increase claudin-2 protein expression”. As to `C=C1/C(=C\C=C2/CCC[C@]3(C)[C@@H]([C@H](C)CCCC(C)(C)O)CC[C@@H]23)C[C@@H](O)C[C@@H]1O` [1.25(OH)2-vitamin D3], the “calcium transport (Experiment 3)” value in test [3] is listed as “active transport of vitamin D was confirmed”.
